Read-outs that look alike come from different tables or passages of the source.
Columns and labels:
human DGKα = human DGKα (Homo sapiens (Human), UniProt P23743); test: biochemical; details: detergent/lipid micelle substrate; read-out: DGKα IC50
In short: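 Enzymes were baculovirus/Sf9 full-length human DGKα or DGKζ with His tag. The substrate was PS/DAG in octyl glucoside micelles, in MOPS pH 7.5 buffer with NaCl, MgCl2, CaCl2 and DTT.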

naïve human CD8 T cells [1] = test: cells; details: Homo sapiens, T-cell, read-out: HuCD8 INFG Normalized EC50, anti-CD3 plus anti-CD28 as baseline; 3 μM Example 40 co-stimulation as 100% activation
In short: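 Thawed frozen cells, 40,000/well, stimulated on plate-bound anti-CD3 (coated at 0.05 μg/mL) plus soluble anti-CD28 0.1 μg/mL; compounds added immediately after plating. After 20 h at 37° C., supernatant IFN-γ quantitated by AlphaLISA, counts converted to IFN-γ concentration […].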

Human venous whole blood = test: Human Whole Blood IFN-γ Assay; format: cell-based
Procedure: Human venous whole blood (22.5 μL per well), obtained from healthy donors, was pre-treated with compounds for one hour at 37° C. in a humidified 95% air/5% CO2 incubator. The blood was stimulated with 2.5 μL anti-human CD3 and anti-CD28 mAb at a final concentration of 1 μg/mL each for 24 hours at 37° C. IFN-γ in the supernatants was measured using AlphaLISA kit (Cat #AL217).

[2] = system: pre-activated CD4 T cells and Raji cells; test: Raji CD4 T Cell IL2 Assay; format: cell-based
naïve human CD8 T cells [3] = test: CellTiter-Glo CD8 T Cell Proliferation Assay; format: cell-based; details: Homo sapiens, T-cell, CellTiter-Glo CD8 T cell proliferation, normalized; read-out: CD8 GLO normalized EC50
[4] = Homo sapiens, human whole blood, anti-CD3 plus anti-CD28 as baseline, 3 μM Example 40 co-stimulation as 100% activation, read-out: INF-γ Whole Blood Normalized Agonist EC50
[5] = Homo sapiens, read-out: INF-γ Whole Blood Agonist EC50

human DGKα, sequence (P23743 other isoform, or with tags, fused parts or gaps): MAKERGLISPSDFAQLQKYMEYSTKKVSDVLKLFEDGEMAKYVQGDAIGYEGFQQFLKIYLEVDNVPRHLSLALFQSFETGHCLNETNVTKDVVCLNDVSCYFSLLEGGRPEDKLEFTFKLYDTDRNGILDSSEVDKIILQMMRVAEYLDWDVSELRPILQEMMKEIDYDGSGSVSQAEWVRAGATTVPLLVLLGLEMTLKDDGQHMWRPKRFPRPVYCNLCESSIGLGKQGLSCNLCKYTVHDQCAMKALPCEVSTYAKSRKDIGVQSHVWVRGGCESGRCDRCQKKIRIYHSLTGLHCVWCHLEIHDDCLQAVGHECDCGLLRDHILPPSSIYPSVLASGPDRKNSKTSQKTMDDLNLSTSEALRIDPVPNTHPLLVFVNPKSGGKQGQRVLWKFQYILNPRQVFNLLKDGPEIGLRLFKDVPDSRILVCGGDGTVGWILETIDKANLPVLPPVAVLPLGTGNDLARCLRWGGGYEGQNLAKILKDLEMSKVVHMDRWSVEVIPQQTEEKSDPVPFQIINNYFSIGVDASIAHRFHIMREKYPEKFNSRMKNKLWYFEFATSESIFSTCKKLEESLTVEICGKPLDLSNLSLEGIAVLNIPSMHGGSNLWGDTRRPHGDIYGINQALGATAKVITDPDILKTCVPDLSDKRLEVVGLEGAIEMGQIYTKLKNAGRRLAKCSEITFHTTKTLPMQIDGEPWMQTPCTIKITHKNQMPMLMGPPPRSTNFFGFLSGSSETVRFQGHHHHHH

Compound `C#CCn1c(=O)c([N+](=O)[O-])c(N2CCN(C(C)c3ccc(F)cc3)CC2)c2nc(C#N)ccc21` (single isomer, unassigned) [Example 137, 8-(4-(1-(4-fluorophenyl)ethyl)piperazin-1-yl)-7-nitro-6-oxo-5-(prop-2-yn-1-yl)-5,6-dihydro-1,5-naphthyridine-2-carbonitrile] has an IC50 (human DGKα) of 280 nM, an EC50 (naïve human CD8 T cells [1]) of 40 nM and an EC50 (Human venous whole blood; human whole blood, anti-CD3 plus anti-CD28 as baseline, 3 μM Example 40 co-stimulation as 100% activation, read-out: INF-γ Whole Blood Normalized Agonist EC50) of 5000 nM.

`COc1ccccc1C(c1ccc(F)cc1)N1CCN(c2c(C#N)c(=O)n(C)c3ccc(Br)nc23)CC1` (single isomer, unassigned) [Example 13, 6-bromo-4-{4-[(4-fluorophenyl)(2-methoxyphenyl)methyl]piperazin-1-yl}-1-methyl-2-oxo-1,2-dihydro-1,5-naphthyridine-3-carbonitrile] showed an IC50 (human DGKα) of 9500 nM, an IC50 [2] of over 100000 nM and an EC50 (naïve human CD8 T cells [1]) of 10000 nM. For the same compound, the EC50 (Human venous whole blood; [4]) was 5000 nM.

`COc1cc(F)ccc1C(c1ccc(F)cc1)N1CCN(c2c(C#N)c(=O)n(C)c3ccc(Br)nc23)CC1` (single isomer, unassigned) [Example 17, 6-bromo-4-{4-[(4-fluoro-2-methoxyphenyl)(4-fluorophenyl)methyl]piperazin-1-yl}-1-methyl-2-oxo-1,2-dihydro-1,5-naphthyridine-3-carbonitrile] was tested, and the IC50 (human DGKα) was 930 nM, the EC50 (naïve human CD8 T cells [1]) was 520 nM and the EC50 (Human venous whole blood; [4]) was 1150 nM. It also gave an EC50 (Human venous whole blood; [5]) of 670 nM.

`COc1cc(F)ccc1C(c1ccc(F)cc1)N1CCN(c2c([N+](=O)[O-])c(=O)n(C)c3ccc(C#N)nc23)CC1` (single isomer, unassigned) [Example 124, 8-(4-((4-fluoro-2-methoxyphenyl)(4-fluorophenyl)methyl)piperazin-1-yl)-5-methyl-7-nitro-6-oxo-5,6-dihydro-1,5-naphthyridine-2-carbonitrile] showed an IC50 (human DGKα) of 750 nM, an EC50 (naïve human CD8 T cells [3]) of 20 nM and an EC50 (naïve human CD8 T cells [1]) of 10 nM. The EC50 (Human venous whole blood; [4]) was 100 nM and the EC50 (Human venous whole blood; [5]) was 140 nM.

Compound `Cc1ccc(CN2CCN(c3c(C#N)c(=O)n(C)c4ccc(Cl)nc34)CC2)cc1` [Example 386, 6-chloro-1-methyl-4-{4-[(4-methylphenyl)methyl]piperazin-1-yl}-2-oxo-1,2-dihydro-1,5-naphthyridine-3-carbonitrile] has an IC50 (human DGKα) of 150 nM, an EC50 (naïve human CD8 T cells [1]) of 960 nM and an EC50 (Human venous whole blood; [4]) of 1240 nM.

Compound `Cc1ccc(CN2CCN(c3c(C#N)c(=O)n(C)c4ccc(Cl)nc34)CC2)c(F)c1` [Example 423, 6-chloro-4-{4-[(2-fluoro-4-methylphenyl)methyl]piperazin-1-yl}-1-methyl-2-oxo-1,2-dihydro-1,5-naphthyridine-3-carbonitrile] has an IC50 (human DGKα) of 1400 nM, an IC50 ([2]; Homo sapiens, Raji) of over 100000 nM and an EC50 (naïve human CD8 T cells [1]) of 460 nM. It also gave an EC50 (Human venous whole blood; [4]) of 10000 nM.

Work on `Cn1c(=O)c(C#N)c(N2CCN(C(C)(C)c3ccc(F)cc3)CC2)c2nc(Cl)ccc21` [Example 425, 6-chloro-4-{4-[2-(4-fluorophenyl)propan-2-yl]piperazin-1-yl}-1-methyl-2-oxo-1,2-dihydro-1,5-naphthyridine-3-carbonitrile] yielded an IC50 (human DGKα) of 1800 nM, an IC50 ([2]; Homo sapiens, Raji) of over 100000 nM and an EC50 (naïve human CD8 T cells [3]) of 190 nM. The EC50 (Human venous whole blood; [4]) was 10000 nM.

Work on `CC(c1ccc(F)cc1)N1CCN(c2c([N+](=O)[O-])c(=O)n(C)c3ccc(C#N)nc23)CC1` (single isomer, unassigned) [Example 44, 8-(4-(1-(4-fluorophenyl)ethyl)piperazin-1-yl)-5-methyl-7-nitro-6-oxo-5,6-dihydro-1,5-naphthyridine-2-carbonitrile] yielded an IC50 (human DGKα) of 230 nM, an EC50 (naïve human CD8 T cells [1]) of 180 nM and an EC50 (Human venous whole blood; [4]) of 900 nM.

`COc1ccc2c(n1)c(N1CCN(C(c3ccc(F)cc3)c3ccc(F)cc3OC)CC1)c(C#N)c(=O)n2C` (racemic) [Example 412, 4-{4-[(4-fluoro-2-methoxyphenyl)(4-fluorophenyl)methyl]piperazin-1-yl}-6-methoxy-1-methyl-2-oxo-1,2-dihydro-1,5-naphthyridine-3-carbonitrile] showed an EC50 (naïve human CD8 T cells [3]) of 300 nM and an EC50 (Human venous whole blood; [4]) of 3010 nM.
